Laboratory results as given in paper PMC9796306, “Multiple detection of both attractants and repellents by the dCache‐chemoreceptor SO_1056 of Shewanella oneidensis” (The Febs Journal, 2022).

What was measured:
[1] = target: T1, MBP-LBD1056 (ligand-binding domain of MCP SO_1056) (Shewanella oneidensis, UniProt Q8EHZ8); assay: isothermal titration calorimetry; conditions: read-out: apparent KD
T1 sequence (Q8EHZ8 29-278): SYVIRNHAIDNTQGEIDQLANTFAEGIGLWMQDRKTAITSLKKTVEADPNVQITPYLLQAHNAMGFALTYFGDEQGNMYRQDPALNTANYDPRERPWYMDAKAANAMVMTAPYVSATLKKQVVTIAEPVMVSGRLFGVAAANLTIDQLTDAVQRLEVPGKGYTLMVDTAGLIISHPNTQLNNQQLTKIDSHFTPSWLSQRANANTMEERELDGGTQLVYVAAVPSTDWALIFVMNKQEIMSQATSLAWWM

[2] = target: MBP-LBD1056 (ligand-binding domain of MCP SO_1056) (Shewanella oneidensis, UniProt Q8EHZ8, N170D)
MBP-LBD1056 (ligand-binding domain of MCP SO_1056) (Shewanella oneidensis, UniProt Q8EHZ8, N170D), sequence (Q8EHZ8 entry or part of it N170D): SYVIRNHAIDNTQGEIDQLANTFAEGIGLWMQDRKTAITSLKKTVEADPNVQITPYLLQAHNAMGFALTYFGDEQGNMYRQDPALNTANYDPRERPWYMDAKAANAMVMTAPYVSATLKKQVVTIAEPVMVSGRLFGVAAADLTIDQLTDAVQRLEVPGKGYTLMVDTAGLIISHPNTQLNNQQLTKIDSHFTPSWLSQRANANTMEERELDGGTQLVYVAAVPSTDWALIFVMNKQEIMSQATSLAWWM

Compound: O=C(O)C[C@H](O)C(=O)O [L-malate]
- Kd [1]: 3.4 ± 0.3 µM
- dTm at 1 mM [2]: 2.4 °C
